These results are taken from patent US20230053649A1 (Cedilla Therapeutics, Inc., priority 2021, published 2023).

Each structure is given as a SMILES string.

Assay [1] deals with mesothelioma cell line NCI-H226. The assay can be described thus: 72H TEAD Proliferation Assay (Cell Titer-Glo 2.0). Format: cell-based. The note with it: Homo sapiens, CTG 2.0, cell line not given in Table 1 (NCI-H226 TEAD-responsive, NCI-H28 non-responsive counter-screen). As to the method: 72H TEAD Proliferation Assay.
The effect of TEAD inhibition on cell proliferation was assayed using Cell Titer Glo (CTG) 2.0 to measure response in mesothelioma cell lines NCI-H226 (ATCC, #CRL-5826) and NCI-H28 (ATCC, #CRL-5820).
The 72H TEAD Proliferation assay utilizes Cell Titer-Glo 2.0 (Promega, #G9243) to measure the proliferation of cells in the presence or absence of compound. Cell Titer-Glo 2.0 determines the amount of viable cells by quantifying ATP (an indication of metabolically active cells). It utilizes the conversion of Luciferin to Oxyluciferin and a luminescent signal with the use of ATP to report the quantity of viable cells in culture. Within cells that are continually growing, ATP is being synthesized to meet their metabolic demands, meanwhile the opposite is true for cells that are dying or slowing down their proliferation and either no longer using ATP or are using less, respectively. The NF2-deficient NCI-H226 has been genetically validated as a cell line that is sensitive to TEAD inhibition. The NF2-wild type NCI-H28 has been genetically validated as a cell line that is not sensitive to TEAD inhibition and grows independently of TEAD activity.
Compounds were screened against the responsive NCI-H226 cell line to assess the compounds' ability to inhibit TEAD and cell growth. Compounds were also screened against the non-responsive NCI-H28 cell line to ascertain whether the inhibition of cell growth was due to inhibition of the target TEAD or whether the inhibition was due to off-target cytotoxicity.
Both NCI-H226 and NCI-H28 cells were grown at 37° C. with 5% CO2 using Growth Medium 1.
Anti-proliferative effect of compounds that inhibits TEAD activity measured by CTG
1) Assay ready plates (ARPs) were prepared by Echo acoustic liquid handler. For each compound, duplicate of 10-point half-log dilution series were dispensed in a 384-well microplate (Corning 3571).
3) Before use, ARPs were allowed to warm up to room temperature for 30 min.
4) ARPs were spun for 5 minutes at 1500RPM before removing the plate seals.
5) NCI-H226 or NCI-H28 cells were harvested from culture in Assay Medium 1 and the multidrop Combi reagent dispenser was used to seed cells at 500 cells per 50ul in each well of the ARPs and one Corning 3571 plate without compounds for Time 0 (TO) readout.
6) The TO plate was incubated for 2 hours at 37° C. with 5% CO2 to allow cells to settle, then the CTG Assay was performed.
7) All ARPs were incubated for 72 hours at 37° C. with 5% CO2, then the CTG Assay was performed for Time 72H (T72) readout.
8) CTG Assay: Bravo liquid handler (Agilent) was used to add 25ul of CTG 2.0 to all columns of the plate except for Column 24, which was used to subtract out the background. After CTG addition, plates were placed on shaker at 800RPM for 15 minutes at room temperature and kept in the dark. Luminescence was measured using EnVision multilabel plate reader with ultra-sensitive detection module.
9) Data Analysis: First background luminescence (no CTG wells) was subtracted from luminescence reading of all wells, then TO luminescence was subtracted from T72 luminescence. To compare anti-proliferative effect of compounds, GI50 was obtained by fitting dose response curves with nonlinear regression curve fit.
A general note: In ATP-based viability assays light output follows the ATP content of the culture.

Assay [2] has as its target TEAD1 protein (YAP Binding Domain) (Homo sapiens, UniProt P28347). The assay can be described thus: biochemical.
Method: Compound Displacement Assay.
A TEAD1 lipid pocket displacement assay was carried out according to the following protocol. Purified His-tagged TEAD1 protein (YAP Binding Domain) was pre-mixed with a Cy5-probe (Cy5-conjugated to a small molecule that binds in the TEAD1 lipid pocket) and Terbium-labeled anti-His antibody (Cisbio Cat 61HI2TLB). The binding of the Cy5-probe to anti-His-Tb/His-tag TEAD1 complex yielded a TR-FRET signal. […] After 60 minutes incubation at room temperature of compounds with the His-TEAD1/anti-His-Tb/Cy5-probe complex, the plate was read on a plate reader (BMG ClarioStar Cat 430-1300) using TR-FRET mode with wavelengths of 665 nm/620 nm. The potency of compounds as TEAD1 lipid pocket binders was determined by IC50 value generated using a non-linear 4 parameter curve fit.

Chain of TEAD1 protein (YAP Binding Domain) (P28347 167-426 limits assumed): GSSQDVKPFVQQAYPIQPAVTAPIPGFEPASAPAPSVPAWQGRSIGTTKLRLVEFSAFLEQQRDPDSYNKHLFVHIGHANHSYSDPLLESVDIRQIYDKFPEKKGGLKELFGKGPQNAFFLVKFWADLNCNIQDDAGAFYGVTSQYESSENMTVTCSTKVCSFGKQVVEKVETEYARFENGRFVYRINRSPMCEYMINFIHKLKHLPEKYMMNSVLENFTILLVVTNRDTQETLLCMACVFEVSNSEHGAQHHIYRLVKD

Regarding `COc1cc(-c2ccc(OC3CC3)cc2)c2ncc(C(=O)N[C@H](C)CO)cc2c1` [Compound I-20, (R)-8-(4-cyclopropoxyphenyl)-N-(1-hydroxypropan-2-yl)-6-methoxyquinoline-3-carboxamide], the GI50 in assay [1] is no more than 500 nM. In assay [2], the 50% inhibitory concentration (IC50) is less than 150 nM.

In turn, `CC(CO)NC(=O)c1ccc2c(OCC3CCC(F)(F)CC3)cccc2c1` (stereo not drawn) [Compound I-22, 5-((4,4-Difluorocyclohexyl)methoxy)-N-(1-hydroxypropan-2-yl)-2-naphthamide] showed a GI50 in assay [1] of no more than 500 nM. Besides, in assay [2], the IC50 lay within 150 to 300 nM.

Take `COC[C@H](C)NC(=O)c1cnc2c(N3CCC(C(F)(F)F)CC3)cc(OC(F)(F)F)cc2c1` [Compound I-23, (S)-N-(1-methoxypropan-2-yl)-6-(trifluoromethoxy)-8-(4-(trifluoromethyl)piperidin-1-yl)quinoline-3-carboxamide]: the GI50 in assay [1] lay within 1000 to 5000 nM. The same compound showed an IC50 in assay [2] of 300 to 500 nM.

The compound `C[C@H](CO)NC(=O)c1cnc2c(N3CCC4(CC3)CC4)cc(OC(F)(F)F)cc2c1` [Compound I-24, (R)-N-(1-hydroxypropan-2-yl)-8-(6-azaspiro[2.5]octan-6-yl)-6-(trifluoromethoxy)quinoline-3-carboxamide] gave a GI50 in assay [1] greater than 5000 nM. Also, in assay [2], the IC50 is greater than 500 nM.

In assay [1], `C[C@H](CO)NC(=O)c1cnc2c(N3CCC4(CC3)CC4)cc(OC3CC3)cc2c1` [Compound I-25, (R)-6-cyclopropoxy-N-(1-hydroxypropan-2-yl)-8-(6-azaspiro[2.5]octan-6-yl)quinoline-3-carboxamide] yielded a GI50 of 1000 to 5000 nM. The compound further registered an IC50 in assay [2] greater than 500 nM.

In turn, `COC[C@H](C)NC(=O)c1cnc2c(N3CCC(C(F)(F)F)CC3)cc(OC3CC3)cc2c1` [Compound I-26, (S)-6-cyclopropoxy-N-(1-methoxypropan-2-yl)-8-(4-(trifluoromethyl)piperidin-1-yl)quinoline-3-carboxamide] came in with a GI50 in assay [1] of 500 to 1000 nM. The compound also gave an IC50 in assay [2] of 300 to 500 nM.

Turning to `COC[C@H](C)NC(=O)c1cnc2c(N3CCC(C(F)(F)F)CC3)cc(OC(F)F)cc2c1` [Compound I-28, (S)-6-(difluoromethoxy)-N-(1-methoxypropan-2-yl)-8-(4-(trifluoromethyl)piperidin-1-yl)quinoline-3-carboxamide], the GI50 in assay [1] lay in the range of 500 to 1000 nM. Further, the IC50 in assay [2] is 150 to 300 nM.

Compound `COc1cc(N2CCC(C(F)(F)F)CC2)c2ncc(C(=O)N[C@@H](CO)C(C)C)cc2c1` [Compound I-35, (R)-N-(1-hydroxy-3-methylbutan-2-yl)-6-methoxy-8-(4-(trifluoromethyl)piperidin-1-yl) quinolone-3-carboxamide] returned a concentration for 50% growth inhibition (GI50) in assay [1] of 500 to 1000 nM. Further, the IC50 in assay [2] lay in the range of 300 to 500 nM.

With `COc1cc(N2CCC(C(F)(F)F)CC2)c2ncc(C(=O)N[C@@H](CO)C3CC3)cc2c1` [Compound I-36], the 50% growth inhibitory concentration (GI50) in assay [1] lay in the range of 500 to 1000 nM. The compound further showed an IC50 in assay [2] of 150 to 300 nM.

In assay [1], `COc1cc(N2CCC(C(F)(F)F)CC2)c2ncc(C(=O)N[C@@H](C)c3ccccn3)cc2c1` [Compound I-37, (S)-6-methoxy-N-(1-(pyridin-2-yl)ethyl)-8-(4-(trifluoromethyl)piperidin-1-yl)quinoline-3-carboxamide] showed a concentration for 50% growth inhibition (GI50) of no more than 500 nM. Moreover, in assay [2], the IC50 is 150 to 300 nM.

As for `COc1cc(N2CCC(C(F)(F)F)CC2)c2ncc(C(=O)NC(C)C)cc2c1` [Compound I-38, N-isopropyl-6-methoxy-8-(4-(trifluoromethyl)piperidin-1-yl)quinoline-3-carboxamide], in assay [1], the GI50 was no more than 500 nM. The IC50 in assay [2] fell in the range of 150 to 300 nM.

Regarding `COc1cccc([C@H](C)NC(=O)c2cnc3c(N4CCC(C(F)(F)F)CC4)cc(OC)cc3c2)c1` [Compound I-39, (S)-6-methoxy-N-(1-(3-methoxyphenyl)ethyl)-8-(4-(trifluoromethyl)piperidin-1-yl)quinoline-3-carboxamide], the GI50 in assay [1] was no more than 500 nM. In assay [2], the IC50 was greater than 500 nM.

As to `COc1cc(N2CCC(C(F)(F)F)CC2)c2ncc(C(=O)N[C@@H](CO)C(C)(C)C)cc2c1` [Compound I-40, (R)-N-(1-hydroxy-3,3-dimethylbutan-2-yl)-6-methoxy-8-(4-(trifluoromethyl)piperidin-1-yl)quinoline-3-carboxamide], the GI50 in assay [1] lay within 500 to 1000 nM. In addition, the IC50 in assay [2] fell in the range of 150 to 300 nM.

`COc1cc(N2CCC(C(F)(F)F)CC2)c2ncc(C(=O)N[C@@H](C)C(=O)O)cc2c1` [Compound I-41, (6-methoxy-8-(4-(trifluoromethyl)piperidin-1-yl)quinoline-3-carbonyl)-L-alanine]: the GI50 in assay [1] was greater than 5000 nM. Also, the IC50 in assay [2] is 150 to 300 nM.

Turning to `COc1cc(N2CCC(C(F)(F)F)CC2)c2ncc(C(=O)N[C@H](C)C(=O)O)cc2c1` [Compound I-42, (6-Methoxy-8-(4-(trifluoromethyl)piperidin-1-yl)quinoline-3-carbonyl)-D-alanine], the GI50 in assay [1] was greater than 5000 nM. This compound showed an IC50 in assay [2] of 150 to 300 nM.

In assay [1], `COc1cc(N2CCC(C(F)(F)F)CC2)c2ncc(C(=O)N[C@@H](C)c3cccc(C(=O)O)c3)cc2c1` [Compound I-43, (S)-3-(1-(6-methoxy-8-(4-(trifluoromethyl)piperidin-1-yl)quinoline-3-carboxamido)ethyl)benzoic acid] registered a GI50 greater than 5000 nM. In addition, in assay [2], the IC50 is less than 150 nM.

For `CC(NC(=O)c1ccc2c(OCC3CCC(F)(F)CC3)cccc2c1)c1ccccn1` (stereo not drawn) [Compound I-45, 5-((4,4-difluorocyclohexyl)methoxy)-N-(1-(pyridin-2-yl)ethyl)-2-naphthamide], the GI50 in assay [1] lay within 1000 to 5000 nM. For the same compound, in assay [2], the IC50 was less than 150 nM.

In turn, `CC(NC(=O)c1cnc2c(OCC3CCC(F)(F)CC3)cccc2c1)c1ccccn1` (stereo not drawn) [Compound I-46, 8-((4,4-Difluorocyclohexyl)methoxy)-N-(1-(pyridin-2-yl)ethyl)quinoline-3-carboxamide] returned a GI50 in assay [1] of 1000 to 5000 nM. Further, in assay [2], the IC50 lay in the range of 300 to 500 nM.

The compound `CC(CO)NC(=O)c1cnc2c(OCC3CCC(F)(F)CC3)cccc2c1` (stereo not drawn) [Compound I-47, 8-((4,4-difluorocyclohexyl)methoxy)-N-(1-hydroxypropan-2-yl)quinoline-3-carboxamide] had a GI50 in assay [1] greater than 5000 nM. Besides, the IC50 in assay [2] was greater than 500 nM.

On to `Cc1cc2cc(C(=O)N[C@H](C)CO)ccc2c(N2CCC(C(F)(F)F)CC2)n1` [Compound I-48, (R)-N-(1-hydroxypropan-2-yl)-3-methyl-1-(4-(trifluoromethyl)piperidin-1-yl)isoquinoline-6-carboxamide], for which the 50% growth inhibitory concentration (GI50) in assay [1] is no more than 500 nM. Moreover, the IC50 in assay [2] is 150 to 300 nM.

`COc1cc2cc(C(=O)N[C@H](C)CO)ccc2c(N2CCC(C(F)(F)F)CC2)n1` [Compound I-49, (R)-N-(1-hydroxypropan-2-yl)-3-methoxy-1-(4-(trifluoromethyl)piperidin-1-yl)isoquinoline-6-carboxamide] came in with a GI50 in assay [1] of no more than 500 nM. In assay [2], this compound returned an IC50 of less than 150 nM.

In assay [1], `COC[C@H](C)NC(=O)c1ccc2c(N3CCC(C(F)(F)F)CC3)nc(OC)cc2c1` [Compound I-50, (S)-3-Methoxy-N-(1-methoxypropan-2-yl)-1-(4-(trifluoromethyl)piperidin-1-yl)isoquinoline-6-carboxamide] had a 50% growth inhibitory concentration (GI50) of 500 to 1000 nM. The same compound displayed an IC50 in assay [2] of less than 150 nM.

`C[C@H](NC(=O)c1ccc2c(N3CCC(C(F)(F)F)CC3)nccc2c1)c1ccccn1` [Compound I-51, (S)-N-(1-(Pyridin-2-yl)ethyl)-1-(4-(trifluoromethyl)piperidin-1-yl)isoquinoline-6-carboxamide] yielded a concentration for 50% growth inhibition (GI50) in assay [1] of no more than 500 nM. The compound also returned an IC50 in assay [2] of less than 150 nM.

`C[C@H](CO)NC(=O)c1ccc2c(N3CCC(C(F)(F)F)CC3)nc(C(F)(F)F)cc2c1` [Compound I-52, (R)-N-(1-hydroxypropan-2-yl)-3-(trifluoromethyl)-1-(4-(trifluoromethyl)piperidin-1-yl)isoquinoline-6-carboxamide]: the GI50 in assay [1] was no more than 500 nM. The same compound returned an IC50 in assay [2] of less than 150 nM.

The term GI50 denotes the concentration giving 50% growth inhibition. Low readings indicate more potent growth inhibition, high ones less potent growth inhibition. As usually defined, the IC50 is the concentration that inhibits the measured activity by half. Higher therefore signals weaker potency in that assay.
